Each cell line was assayed with COC1=C(C=C(C=C1)C2=CC3=NC=CN3C(=N2)NC4=C(C=CC=N4)C(=O)N)OC [BAY61-3606] + CS(=O)(=O)CCNCc1ccc(-c2ccc3ncnc(Nc4ccc(OCc5cccc(F)c5)c(Cl)c4)c3c2)o1 [Lapatinib] (partner 2 µM) (assay: relative viability (nuclei count vs DMSO), 5 days (fraction); higher = more cells survive). Conditions: first compound 0.02 µM.
In short: (§1)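 Relative viability is defined as nuclei in treated wells over nuclei in vehicle wells. Duplicate plates were run and medians reported. Lung cancer cell lines in 1536-well plates were dosed by pin tool one day after seeding, with one drug or with a fixed anchor-drug dose plus five library-drug doses (not always all listed) in √10 steps, and nuclei were counted after 5 days.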

Cell Line | relative viability
NCI-H2085 | 0.865
HCC-15 | 0.891
NCI-H1944 | 0.851
EKVX | 0.365
NCI-H1993 | 0.733
NCI-H23 | 1.16
ABC-1 | 1.34
SK-MES-1 | 0.594
PC-14 | 0.367
HCC-366 | 1.05

Same assay, conditions: first compound 0.06325 µM

Cell Line | relative viability
NCI-H2085 | 0.784
HCC-15 | 0.921
NCI-H1944 | 0.88
EKVX | 0.184
NCI-H1993 | 0.846
NCI-H23 | 1.39
ABC-1 | 1.03
SK-MES-1 | 0.483
PC-14 | 0.278
HCC-366 | 1.09

Same assay, conditions: first compound 0.2 µM

Cell Line | relative viability
NCI-H2085 | 0.777
HCC-15 | 0.851
NCI-H1944 | 0.796
EKVX | 0.214
NCI-H1993 | 0.808
NCI-H23 | 1.11
ABC-1 | 1.23
SK-MES-1 | 0.469
PC-14 | 0.357
HCC-366 | 1.13

Same assay, conditions: first compound 0.6325 µM

Cell Line | relative viability
NCI-H2085 | 0.977
HCC-15 | 0.875
NCI-H1944 | 0.776
EKVX | 0.198
NCI-H1993 | 0.776
NCI-H23 | 0.985
ABC-1 | 1.05
SK-MES-1 | 0.424
PC-14 | 0.339
HCC-366 | 1.08

Same assay, conditions: first compound 2 µM

Cell Line | relative viability
NCI-H2085 | 0.71
HCC-15 | 0.792
NCI-H1944 | 0.587
EKVX | 0.193
NCI-H1993 | 0.746
NCI-H23 | 0.95
ABC-1 | 0.98
SK-MES-1 | 0.42
PC-14 | 0.377
HCC-366 | 0.955

Each cell line was assayed with COC1=C(C=C(C=C1)C2=CC3=NC=CN3C(=N2)NC4=C(C=CC=N4)C(=O)N)OC [BAY61-3606] + C[C@@H](Oc1cc(-c2cnn(C3CCNCC3)c2)cnc1N)c1c(Cl)ccc(F)c1Cl [Crizotinib] (partner 1 µM) in the same assay as above. Conditions: first compound 0.02 µM.
In short: as §1

Cell Line | relative viability
NCI-H2085 | 0.858
HCC-15 | 0.835
NCI-H1944 | 1.08
EKVX | 0.972
NCI-H1993 | 0.949
NCI-H23 | 0.53
ABC-1 | 0.999
SK-MES-1 | 1.01
PC-14 | 0.855
HCC-366 | 0.506

Same assay, conditions: first compound 0.06325 µM

Cell Line | relative viability
NCI-H2085 | 0.882
HCC-15 | 0.834
NCI-H1944 | 1.04
EKVX | 0.868
NCI-H1993 | 0.87
NCI-H23 | 0.283
ABC-1 | 0.978
SK-MES-1 | 0.971
PC-14 | 0.803
HCC-366 | 0.495

Same assay, conditions: first compound 0.2 µM

Cell Line | relative viability
NCI-H2085 | 0.87
HCC-15 | 0.806
NCI-H1944 | 0.912
EKVX | 0.976
NCI-H1993 | 0.807
NCI-H23 | 0.505
ABC-1 | 0.992
SK-MES-1 | 0.962
PC-14 | 0.865
HCC-366 | 0.566

Same assay, conditions: first compound 0.6325 µM

Cell Line | relative viability
NCI-H2085 | 0.863
HCC-15 | 0.836
NCI-H1944 | 1.07
EKVX | 1.15
NCI-H1993 | 0.827
NCI-H23 | 0.486
ABC-1 | 1.02
SK-MES-1 | 0.966
PC-14 | 0.974
HCC-366 | 0.461

Same assay, conditions: first compound 2 µM

Cell Line | relative viability
NCI-H2085 | 0.702
HCC-15 | 0.779
NCI-H1944 | 0.637
EKVX | 0.806
NCI-H1993 | 0.636
NCI-H23 | 0.264
ABC-1 | 0.821
SK-MES-1 | 0.876
PC-14 | 0.757
HCC-366 | 0.162

The cell lines below were run with COC1=C(C=C(C=C1)C2=CC3=NC=CN3C(=N2)NC4=C(C=CC=N4)C(=O)N)OC [BAY61-3606] + C[C@]1(O)C[C@@H](c2nc(-c3ccc4ccc(-c5ccccc5)nc4c3)c3c(N)nccn32)C1 [Linsitinib] (partner 1 µM) in the same assay as above. Conditions: first compound 0.02 µM.
In short: as §1

Cell Line | relative viability
NCI-H2085 | 0.977
HCC-15 | 0.964
NCI-H1944 | 1.31
EKVX | 1.12
NCI-H1993 | 0.688
NCI-H23 | 0.613
ABC-1 | 0.774
SK-MES-1 | 1
PC-14 | 1.05
HCC-366 | 0.831

Same assay, conditions: first compound 0.06325 µM

Cell Line | relative viability
NCI-H2085 | 0.931
HCC-15 | 0.988
NCI-H1944 | 1.17
EKVX | 0.981
NCI-H1993 | 0.748
NCI-H23 | 0.689
ABC-1 | 0.948
SK-MES-1 | 1.13
PC-14 | 1.04
HCC-366 | 0.613

Same assay, conditions: first compound 0.2 µM

Cell Line | relative viability
NCI-H2085 | 0.853
HCC-15 | 0.814
NCI-H1944 | 1.1
EKVX | 0.99
NCI-H1993 | 0.723
NCI-H23 | 0.609
ABC-1 | 0.879
SK-MES-1 | 1.09
PC-14 | 0.916
HCC-366 | 0.689

Same assay, conditions: first compound 0.6325 µM

Cell Line | relative viability
NCI-H2085 | 0.813
HCC-15 | 0.876
NCI-H1944 | 1.13
EKVX | 0.946
NCI-H1993 | 0.7
NCI-H23 | 0.881
ABC-1 | 0.827
SK-MES-1 | 1.09
PC-14 | 0.968
HCC-366 | 0.694

Same assay, conditions: first compound 2 µM

Cell Line | relative viability
NCI-H2085 | 0.871
HCC-15 | 0.725
NCI-H1944 | 1.27
EKVX | 0.935
NCI-H1993 | 0.741
NCI-H23 | 0.423
ABC-1 | 0.631
SK-MES-1 | 0.989
PC-14 | 0.826
HCC-366 | 0.366

These cell lines were tested with COc1cccc2c1C(=O)c1c(O)c3c(c(O)c1C2=O)C[C@@](O)(C(=O)CO)C[C@@H]3O[C@H]1C[C@H](N)[C@H](O)[C@H](C)O1 [Doxorubicin] + COc1cccc2cc(-c3nc([C@H]4CC[C@H](C(=O)O)CC4)n4ncnc(N)c34)[nH]c12 [OSI-027] (partner 0.5 µM) in the same assay as above. Conditions: first compound 0.001 µM.
In short: as §1

Cell Line | relative viability
NCI-H2085 | 0.786
NCI-H1944 | 0.317
EKVX | 0.727
NCI-H1993 | 0.591
ABC-1 | 0.431
SK-MES-1 | 0.637
PC-14 | 0.683

Same assay, conditions: first compound 0.003162 µM

Cell Line | relative viability
NCI-H2085 | 0.784
HCC-15 | 0.677
NCI-H1944 | 0.46
EKVX | 0.66
NCI-H1993 | 0.58
NCI-H23 | 0.664
ABC-1 | 0.494
SK-MES-1 | 0.719
PC-14 | 1.14
HCC-366 | 1.01

Same assay, conditions: first compound 0.01 µM

Cell Line | relative viability
NCI-H2085 | 0.667
HCC-15 | 0.635
NCI-H1944 | 0.473
EKVX | 0.702
NCI-H1993 | 0.542
NCI-H23 | 0.694
ABC-1 | 0.424
SK-MES-1 | 0.516
PC-14 | 0.865
HCC-366 | 0.934

Same assay, conditions: first compound 0.03162 µM

Cell Line | relative viability
NCI-H2085 | 0.679
HCC-15 | 0.284
NCI-H1944 | 0.358
EKVX | 0.639
NCI-H1993 | 0.515
NCI-H23 | 0.537
ABC-1 | 0.306
SK-MES-1 | 0.174
PC-14 | 0.161
HCC-366 | 0.85

Same assay, conditions: first compound 0.1 µM

Cell Line | relative viability
NCI-H2085 | 0.589
HCC-15 | 0.136
NCI-H1944 | 0.366
EKVX | 0.695
NCI-H1993 | 0.498
NCI-H23 | 0.506
ABC-1 | 0.32
SK-MES-1 | 0.129
PC-14 | 0.0612
HCC-366 | 0.423

— the supplement of paper PMC10307832
